# Legend:
# [1] = test system: blackgrass; assay: Test A postemergence; assay type: in vivo, Alopecurus myosuroides; settings: for Blackgrass plant response rating: 125 g ai/ha
# Outline: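 Scoring: eye-based comparison with untreated controls, 0 for no effect through 100 for complete control, at about day 10. Treatments: directed soil spray preemergence; foliar spray postemergence on 2–10 cm plants at the one- to two-leaf stage. Medium: loam soil with sand.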
# [2] = test system: barnyardgrass; assay: Test B flooded paddy test; assay type: in vivo, Echinochloa crus-galli; settings: Echinochloa crus-galli; Flood, 250 g ai/ha; 0 to 100 scale where 0 is no effect and 100 is complete control; read-out: Plant response rating, Barnyardgrass
# Outline: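 Flooded to 3 cm at the 2-leaf stage, pots received compound through the paddy water and were kept at that depth under greenhouse conditions. After 13–15 days, effect was rated by eye relative to controls, 0 = none and 100 = complete control.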
# [3] = test system: galium; assay: Test C preemergence; assay type: in vivo, Galium aparine; settings: Galium, pre-emergence; for pest or weed control at 16 g/ha: 16 g ai/ha, scale 0 to 100 (0 no effect, 100 complete control); for pest or weed control at 16 g/ha / pest or weed control at 62 g/ha / pest or weed control at 125 g/ha: preemergence, read-out: Galium plant response rating; for pest or weed control at 62 g/ha: 62 g ai/ha; for pest or weed control at 62 g/ha / pest or weed control at 125 g/ha: scale 0 (no effect) to 100 (complete control); for pest or weed control at 125 g/ha: 125 g ai/ha; for pest or weed control at 31 g/ha: Preemergence, 31 g ai/ha, scale 0 to 100, 0 no effect, 100 complete control, read-out: Plant response rating, Galium
# Outline: (§1)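 Whole-plant greenhouse test with surfactant-containing solvent formulation, applied preemergence to sown loam–sand pots or postemergence to 2–18 cm plants. Scored by eye 13 to 15 days on, 0–100 scale.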
# [4] = test system: corn; assay: Test C preemergence; assay type: in vivo, Zea mays; settings: Zea mays, pre-emergence; for plant injury at 16 g/ha: 16 g ai/ha, scale 0 to 100 (0 no effect, 100 complete control); for plant injury at 16 g/ha / plant injury at 62 g/ha / plant injury at 125 g/ha: preemergence, read-out: Corn plant response rating; for plant injury at 62 g/ha: 62 g ai/ha; for plant injury at 62 g/ha / plant injury at 125 g/ha: scale 0 (no effect) to 100 (complete control); for plant injury at 125 g/ha: 125 g ai/ha; for Corn plant response rating (crop injury, 0 = no effect, 100 = complete kill) at 31 g/ha: Preemergence, 31 g ai/ha, scale 0 to 100, 0 no effect, 100 complete control
# Outline: as §1
# [5] = test system: morningglory; assay: Test C preemergence; assay type: in vivo, Ipomoea coccinea; settings: Ipomoea, pre-emergence, preemergence, read-out: Morningglory plant response rating; for pest or weed control at 16 g/ha: 16 g ai/ha, scale 0 to 100 (0 no effect, 100 complete control); for pest or weed control at 62 g/ha: 62 g ai/ha; for pest or weed control at 62 g/ha / pest or weed control at 125 g/ha: scale 0 (no effect) to 100 (complete control); for pest or weed control at 125 g/ha: 125 g ai/ha
# Outline: as §1
# [6] = test system: yellow nutsedge; assay: Test C preemergence; assay type: in vivo, Cyperus esculentus; settings: Cyperus, pre-emergence, preemergence, read-out: Nutsedge, Yellow plant response rating; for pest or weed control at 62 g/ha: 62 g ai/ha; for pest or weed control at 62 g/ha / pest or weed control at 125 g/ha: scale 0 (no effect) to 100 (complete control); for pest or weed control at 125 g/ha: 125 g ai/ha
# Outline: as §1
# [7] = test system: wheat, winter; assay: Test C postemergence; assay type: in vivo, Triticum aestivum; settings: for plant injury at 16 g/ha / plant injury at 125 g/ha / plant injury at 62 g/ha: Triticum aestivum, post-emergence; for plant injury at 16 g/ha: 16 g ai/ha, 0 is no effect, 100 is complete control, read-out: Plant response rating (0 to 100), Wheat; for plant injury at 125 g/ha: 125 g ai/ha; for plant injury at 125 g/ha / plant injury at 62 g/ha: read-out: Plant response rating, Wheat; for plant injury at 62 g/ha: Postemergence, 62 g ai/ha
# Outline: as §1
# [8] = test system: lambsquarters; assay: Test C postemergence; assay type: in vivo, Chenopodium album; settings: for pest or weed control at 16 g/ha / pest or weed control at 125 g/ha / pest or weed control at 62 g/ha: Chenopodium album, post-emergence; for pest or weed control at 16 g/ha: 16 g ai/ha, 0 is no effect, 100 is complete control, read-out: Plant response rating (0 to 100), Lambsquarters; for pest or weed control at 125 g/ha: 125 g ai/ha; for pest or weed control at 125 g/ha / pest or weed control at 62 g/ha: read-out: Plant response rating, Lambsquarters; for pest or weed control at 62 g/ha: Postemergence, 62 g ai/ha
# Outline: as §1
# [9] = test system: morningglory; assay: Test C postemergence; assay type: in vivo, Ipomoea coccinea; settings: for pest or weed control at 16 g/ha / pest or weed control at 125 g/ha / pest or weed control at 62 g/ha: Ipomoea, post-emergence; for pest or weed control at 16 g/ha: 16 g ai/ha, 0 is no effect, 100 is complete control, read-out: Plant response rating (0 to 100), Morningglory; for pest or weed control at 125 g/ha: 125 g ai/ha; for pest or weed control at 125 g/ha / pest or weed control at 62 g/ha: read-out: Plant response rating, Morningglory; for pest or weed control at 62 g/ha: Postemergence, 62 g ai/ha
# Outline: as §1
# [10] = test system: ragweed; assay: Test C postemergence; assay type: in vivo, Ambrosia elatior; settings: for pest or weed control at 16 g/ha / pest or weed control at 125 g/ha / pest or weed control at 62 g/ha: Ambrosia artemisiifolia, post-emergence; for pest or weed control at 16 g/ha: 16 g ai/ha, 0 is no effect, 100 is complete control, read-out: Plant response rating (0 to 100), Ragweed; for pest or weed control at 125 g/ha: 125 g ai/ha; for pest or weed control at 125 g/ha / pest or weed control at 62 g/ha: read-out: Plant response rating, Ragweed; for pest or weed control at 62 g/ha: Postemergence, 62 g ai/ha
# Outline: as §1
# [11] = test system: soybean; assay: Test C postemergence; assay type: in vivo, Glycine max; settings: for Soybean plant response rating (crop injury, 0-100 scale) at 16 g/ha / Soybean plant response rating (crop injury, 0-100 scale) at 125 g/ha / Soybean plant response rating (crop injury, 0-100 scale) at 62 g/ha: Glycine max, post-emergence; for Soybean plant response rating (crop injury, 0-100 scale) at 16 g/ha: 16 g ai/ha, 0 is no effect, 100 is complete control; for Soybean plant response rating (crop injury, 0-100 scale) at 125 g/ha: 125 g ai/ha, read-out: Plant response rating, Soybean; for Soybean plant response rating (crop injury, 0-100 scale) at 62 g/ha: Postemergence, 62 g ai/ha
# Outline: as §1
# [12] = test system: oilseed rape; assay: Test C postemergence; assay type: in vivo, Brassica napus; settings: for plant injury at 16 g/ha / plant injury at 125 g/ha / plant injury at 62 g/ha: Brassica napus, post-emergence; for plant injury at 16 g/ha: 16 g ai/ha, 0 is no effect, 100 is complete control, read-out: Plant response rating (0 to 100), Oilseed Rape; for plant injury at 125 g/ha: 125 g ai/ha; for plant injury at 125 g/ha / plant injury at 62 g/ha: read-out: Plant response rating, Oilseed Rape; for plant injury at 62 g/ha: Postemergence, 62 g ai/ha
# Outline: as §1
# [13] = 0 to 100 scale where 0 is no effect and 100 is complete control
# [14] = postemergence, visual rating, scale 0 to 100 (0 no effect, 100 complete control)
# [15] = scale 0 to 100 (0 no effect, 100 complete control)
# [16] = 31 g ai/ha, postemergence, visual rating, scale 0 to 100 (0 no effect, 100 complete control), 13 to 15 days
smiles,measurement,setting,value
"Fc1cccc(Oc2ncc(Cl)cn2)c1-n1cc(C(F)F)nn1 [Compound 141, 5-chloro-2-[2-[4-(difluoromethyl)-1H-1,2,3-triazol-1-yl]-3-fluorophenoxy]pyrimidine]","Plant response rating, Blackgrass","[1]; 31 g ai/ha, 0 to 100 scale, 0 no effect, 100 complete control",90
same,Blackgrass plant response rating,[1]; [13],100
same,pest or weed control at 250 g/ha,[2],100%
same,pest or weed control at 16 g/ha,[3],98%
same,pest or weed control at 62 g/ha,[3],100%
same,pest or weed control at 125 g/ha,[3],100%
same,pest or weed control at 31 g/ha,[3],98%
same,plant injury at 16 g/ha,[4],5%
same,plant injury at 62 g/ha,[4],80%
same,plant injury at 125 g/ha,[4],90%
same,"Corn plant response rating (crop injury, 0 = no effect, 100 = complete kill) at 31 g/ha",[4],20%
same,pest or weed control at 16 g/ha,[5],75%
same,pest or weed control at 62 g/ha,[5],100%
same,pest or weed control at 125 g/ha,[5],100%
same,pest or weed control at 62 g/ha,[6],70%
same,pest or weed control at 125 g/ha,[6],95%
same,plant injury at 16 g/ha,[7]; postemergence,0%
same,plant injury at 125 g/ha,[7]; [14],25%
same,plant injury at 62 g/ha,[7]; [15],5%
same,pest or weed control at 16 g/ha,[8]; postemergence,85%
same,pest or weed control at 125 g/ha,[8]; [14],100%
same,pest or weed control at 62 g/ha,[8]; [15],100%
same,pest or weed control at 16 g/ha,[9]; postemergence,85%
same,pest or weed control at 125 g/ha,[9]; [14],100%
same,pest or weed control at 62 g/ha,[9]; [15],95%
same,pest or weed control at 16 g/ha,[10]; postemergence,80%
same,pest or weed control at 125 g/ha,[10]; [14],90%
same,pest or weed control at 62 g/ha,[10]; [15],98%
same,"Soybean plant response rating (crop injury, 0-100 scale) at 16 g/ha",[11]; postemergence,85%
same,"Soybean plant response rating (crop injury, 0-100 scale) at 125 g/ha",[11]; [14],95%
same,"Soybean plant response rating (crop injury, 0-100 scale) at 62 g/ha",[11]; [15],90%
same,plant injury at 16 g/ha,[12]; postemergence,50%
same,plant injury at 125 g/ha,[12]; [14],98%
same,plant injury at 62 g/ha,[12]; [15],95%
"FC(F)c1cn(-c2ccccc2Oc2ncc(Cl)cn2)nn1 [Compound 147, 5-chloro-2-[2-[4-(difluoromethyl)-1H-1,2,3-triazol-1-yl]phenoxy]pyrimidine]",Blackgrass plant response rating,[1]; [13],100
same,"Plant response rating, Blackgrass","[1]; 500 g ai/ha, 0 to 100 scale where 0 is no effect and 100 is complete control",100
same,pest or weed control at 250 g/ha,[2],35%
same,pest or weed control at 16 g/ha,[3],90%
same,pest or weed control at 62 g/ha,[3],98%
same,pest or weed control at 125 g/ha,[3],98%
same,pest or weed control at 31 g/ha,[3],98%
same,plant injury at 16 g/ha,[4],0%
same,plant injury at 62 g/ha,[4],20%
same,plant injury at 125 g/ha,[4],35%
same,"Corn plant response rating (crop injury, 0 = no effect, 100 = complete kill) at 31 g/ha",[4],0%
same,pest or weed control at 16 g/ha,[5],40%
same,pest or weed control at 62 g/ha,[5],95%
same,pest or weed control at 125 g/ha,[5],100%
same,pest or weed control at 16 g/ha,"[6]; 16 g ai/ha, scale 0 to 100 (0 no effect, 100 complete control)",0%
same,pest or weed control at 62 g/ha,[6],15%
same,pest or weed control at 125 g/ha,[6],55%
same,Wheat plant response rating,[7]; [16],5
same,plant injury at 16 g/ha,[7]; postemergence,0%
same,plant injury at 125 g/ha,[7]; [14],15%
same,plant injury at 62 g/ha,[7]; [15],10%
same,Lambsquarters plant response rating,[8]; [16],75
same,pest or weed control at 16 g/ha,[8]; postemergence,60%
same,pest or weed control at 125 g/ha,[8]; [14],98%
same,pest or weed control at 62 g/ha,[8]; [15],90%
same,Morningglory plant response rating,[9]; [16],70
same,pest or weed control at 16 g/ha,[9]; postemergence,70%
same,pest or weed control at 125 g/ha,[9]; [14],80%
same,pest or weed control at 62 g/ha,[9]; [15],75%
same,Ragweed plant response rating,[10]; [16],65
same,pest or weed control at 16 g/ha,[10]; postemergence,40%
same,pest or weed control at 125 g/ha,[10]; [14],85%
same,pest or weed control at 62 g/ha,[10]; [15],75%
same,Soybean plant response rating,[11]; [16],65
same,"Soybean plant response rating (crop injury, 0-100 scale) at 16 g/ha",[11]; postemergence,65%
same,"Soybean plant response rating (crop injury, 0-100 scale) at 125 g/ha",[11]; [14],90%
same,"Soybean plant response rating (crop injury, 0-100 scale) at 62 g/ha",[11]; [15],85%
same,Oilseed Rape plant response rating,[12]; [16],40
same,plant injury at 16 g/ha,[12]; postemergence,25%
same,plant injury at 125 g/ha,[12]; [14],95%
same,plant injury at 62 g/ha,[12]; [15],75%

# From US9695155B2, “Herbicidal substituted pyrimidinyloxy benzene compounds” (E. I. DU PONT DE NEMOURS AND COMPANY, priority 2013, dated 2017)
